Experiments:
Format in all cases: in vivo, rat
SD rats [1] = assay: Startle response to acoustic stimuli of 120 db; details: % in comparison with CON/VEH group (FIG. 4B)
Description: SD rats (Nippon SLC) from postnatal day 2 were used as the test animals. Human recombinant epidermal growth factor (EGF; Higeta Shoyu) and cytochrome-C (Sigma) were dissolved in physiological saline at 70 μL/mL. From postnatal day 2, 25 μL of the solution per 1 g of the body weights of rats (each 1.75 mg/kg) was subcutaneously administered to the rat at the nape of the neck every other day. This operation was repeated five times until postnatal day 10. From postnatal day 21, the startle response and the prepulse inhibition were measured in a startled chamber (San diego Instruments). That is, acoustic stimulus was used as the sensory stimulation to induce startle response. As a prepulse, acoustic stimuli at the intensity 5 to 15 db above the environmental noise (background noise) was given. After 100 milliseconds, a pulse stimuli at the intensity of 120 db was given. The extent of the response obtained under combination of prepulse and 120 db was divided by that obtained under 120 db alone (%) to obtain response ratio. […]
The results of the prepulse inhibition (FIG. 2A) and the startle response (FIG. 2B) analyzed in accordance to postnatal days are shown in FIG. 2. […]
Moreover, the effect of 4-(4-[p-Chlorophenyl]-4-hydroxypiperidino)-4′-fluorobutyrophenone (Haloperidol: Sigma-Aldrich Fine Chemical Co.Ltd.) was also evaluated. […]

SD rats [2] = assay: Motor activity: line crossing (horizonal activity) and rearing (vertical activity); details: for effect on vertical activity of the EGF rat groups: chronic administration for three weeks, tested 48 hours after the final administration, p<0.05 vs EGF/VEH
Description: The locomotor activities of the animals were measured at postnatal days 24 and 52. At postnatal day 24, it was measured using automated Activity Monitor (Neuro Science). At postnatal day 53, using a box having the size of 51×51×80 cm with lines of every 17 cms, the number of line crossing (horizonal activity) and the number of learing counts (vertical activity) within 10 minutes were measured.
The mean numbers (±SEM) of horizonal activity (Line Cross) and vertical activity (Rearing) at postnatal days 24 (P24) and 52 (P52) are shown in FIG. 5. FIG. 5A is the result obtained at postnatal day 24 (n=15, 8 males and 7 females) and FIG. 5B is the result obtained at postnatal day 52 (n=10, 5 males and 5 females). In FIG. 5, the left vertical axis indicates the number of the horizonal activity, while the right vertical axis indicates the number of the vertical activity. The left columns indicate the number of line crossing and the right columns indicate the number of learing counts, respectively. Moreover, the white columns indicate the control group (CON) and the black columns indicate the epidermal EGF administrated group, respectively.
The effect of anti-psychotic medicine on motor activity was also investigated using rats of postnatal day 52. The results investigated on four groups are shown in FIG. 6, namely 1) the control rats group (CON/VEH) with saline administration as a vehicle, (2) the EGF administrated/saline injected group (EGF/VEH, n=10), (3) the EGF administered/clozapin injected group (EGF/CLP, n=10) and (4) the EGF administered/haloperidol injected group (EGF/HAL, n=6). The same numbers of male and female are used in each of the groups. Saline, haloperidol and clozapine were administrated for three weeks, and each group was tested 48 hours after the final administration. Moreover, the asterisk mark (*) and the sharp mark (#) indicate significant difference as compared with the CON/VEH group and EGF/VEH group, respectively (* p<0.05, #p<0.05). […] Meanwhile, administration of these medicines was not effective on the horizonal activity.

SD rats [3] = assay: Social interaction test (sniffing behavior against unfamiliar partner); details: postnatal day 52; for effect on reduced sniffing behavior in the EGF administrated group: pretreated for three weeks, test 48 hours after the final injection
Source text: Social interaction test is a test that makes an index of the schizophrenic patient's trait that they dislike to make contact with other individuals and keeps away from society, can be made to an index. In general, the sniffling behavior of the animals, usually observed when an animal meets to an unknown individual, is observed. In general, in schizophrenic patients and in schizophrenic model animals, decrease of this behavior has been reported.
Moreover, the abnormality in social interaction of the EGF administrated rats was investigated according to the method of File et al. Using two rats of postnatal day 52, sniffling behavior between two rats was observed and the time of sniffling behavior was used as an index of anxiety. […] In concrete, the sniffling behavior was observed under high light level and unfamiliar condition in the opened space. The both groups of animals are videotaped and sniffing behaviors of the animals against those of the partner was recorded (FIG. 7).
In FIG. 7, the mean times (±SEM) of the sniffing behavior were shown. The investigation was performed on the four groups of (1) the control rats group (CON/VEH) with saline administration as a vehicle, (2) the EGF administrated/saline injected group (EGF/VEH, n=10), (3) the EGF administered/clozapin injected group (EGF/CLOZ, n=10) and (4) the EGF administered/haloperidol injected group (EGF/HAL, n=6). The EGF administrated rats were pretreated by clozapine or haloperidol for three weeks and the test was performed after 48 hours of the final injection on each group. The asterisk marks indicate significant difference as compared with the CON/VEH group (** p<0.01). […] Moreover, the reduced sniffing behavior in the EGF adinistrated group recovered by injection of clozapine (EGF/CLOZ). Meanwhile, halopelidol was not effective to recover the sniffing behavior (EGF/HAL).

SD rats [4] = assay: Prepulse inhibition (PPI) of acoustic startle response; details: for prepulse inhibition, EGF administrated group vs cytochrome-C administered group: EGF 1.75 mg/kg s.c. five times P2-P10, p<0.05; for effect on prepulse inhibition in EGF administered rats: administration for one week, test 23 hours after the final administration, haloperidol 0.3 mg/kg peritoneal (FIG. 4A); for prepulse inhibition of EGF administered group under clozapine (EGF CZP) vs cytochrome-C group (Cont CZP): peritoneal, everyday from postnatal day 21
Source text: As the method used to evaluate the sensorimotor and behavioral abnormalities, behavioristic measurements such as prepulse inhibition of startle response, latent inhibition, social interaction, motor activity of the animal, can be mentioned. The prepulse inhibition of startle response is a test to evaluate the ability of perception-motor activity, using the startle response as an index and the startle response can be evaluated in human being and animal in common. In this test, evaluation of attention deficit and abnormality in information processing in brain can be achieved scientifically and objectively. These are considered to be the main factors involved in schizophrenic pathology. […] This test is carried out by measurement of such reaction. Such decrease caused by the prepulse is called “prepulse inhibition”.
SD rats (Nippon SLC) from postnatal day 2 were used as the test animals. Human recombinant epidermal growth factor (EGF; Higeta Shoyu) and cytochrome-C (Sigma) were dissolved in physiological saline at 70 μL/mL. From postnatal day 2, 25 μL of the solution per 1 g of the body weights of rats (each 1.75 mg/kg) was subcutaneously administered to the rat at the nape of the neck every other day. This operation was repeated five times until postnatal day 10. From postnatal day 21, the startle response and the prepulse inhibition were measured in a startled chamber (San diego Instruments). That is, acoustic stimulus was used as the sensory stimulation to induce startle response. As a prepulse, acoustic stimuli at the intensity 5 to 15 db above the environmental noise (background noise) was given. After 100 milliseconds, a pulse stimuli at the intensity of 120 db was given. The extent of the response obtained under combination of prepulse and 120 db was divided by that obtained under 120 db alone (%) to obtain response ratio. The response ratio was subtracted from 100 and it was designated prepulse inhibition (PPI). The calculation formula used to calculate the prepulse inhibition (PPI) is shown below. [formula]
The effect of 8-Chloro-11-(4-methyl-1-piperazinyl)-5H-dibenzo[b,e][1,4]-diazepine (clozapine: Sigma-Aldrich Fine Chemical Co.Ltd.), recognized to be a therapeutic agent for schizophrenia of human beings, was evaluated on the present model animal to evaluate the adequacy of this model. To the human recombinant EGF administered group and the control group (cytochrome-C administered), clozapine was peritoneally administrated everyday. This administration was performed from postnatal day 21 and chronic abnormality of prepulse inhibition firstly occurs around this period. The prepulse inhibition (PPI) was measured at the postnatal days 30 (P30), 33 (P33) and 37 (P37) (FIG. 3). The result at postnatal day 30 (P30) is shown in FIG. 3A, the result at postnatal day 33 (P33) is shown in FIG. 3B, and the result at postnatal day 37 (P37) is shown in FIG. 3C, respectively.
Moreover, the effect of 4-(4-[p-Chlorophenyl]-4-hydroxypiperidino)-4′-fluorobutyrophenone (Haloperidol: Sigma-Aldrich Fine Chemical Co.Ltd.) was also evaluated. Haloperidol was peritoneally administrated at a dose of 0.3 mg/kg. In FIG. 4, investigation was performed on the four groups of: (1) the control rats group (CON/VEH) with saline administration (as a vehicle), (2) the EGF administrated/saline injected group (EGF/VEH, n=10), (3) the EGF administered/clozapin injected group (EGF/CLP, n=10) and (4) the EGF administered/haloperidol injected group (EGF/HPD, n=6). The administration of saline, clozapine and haloperidol continued for one week. Twenty-three hours after the final administration, the test was performed on the rats of the respective group.

SD rats [5] = assay: Active avoidance response in shuttle box (learning ability)
Description: Furthermore, the learning ability was investigated by active avoidance response. The active avoidance test was performed in a shuttle box, using rats of postnatal day 51-60 (10 trials/day). The conditioning stimulus (CS) adopted here was a stimuli by noise of 80 dB tone and room light for 5 s. When the CS was on, the test animals had to cross the other side of the shuttle box apparatus (avoidance response) in order to turn it off and avoid the appearance of the unconditioned stimulus (US) described below. As the US, an electric shock by conducting 0.6-mA intensity of constant current for 10 s was utilized. Moreover, the test animals were investigated whether they are capable of avoiding the electrical shock by learning.
In FIG. 8, the percentages (±SEM) of the avoidance response are shown. In FIG. 8, the open circle symbols indicate cytochrome-c treated control group (CON: n=10), and the closed triangle symbols indicate EGF-treated group (EGF: n=10), respectively. […] There was also no difference between these two groups in the latency of response or the number of crossings between the two sides of the shuttle box.

[6] = postnatal day 51-60, n=10 per group

EGF: Human recombinant epidermal growth factor (Higeta Shoyu), protein factor administered to juvenile rats to prepare the schizophrenic model animal (NSDSECPLSHDGYCLHDGVCMYIEALDKYACNCVVGYIGERCQYRDLKWWELR; Epidermal growth factor; UniProt P01133 971-1023, looked up)
startle response against acoustic stimuli of 120 db, EGF administered groups vs CON/VEH group (SD rats [1]): significant stronger | number of horizonal activity (line cross), EGF group vs cytochrome-C group (CON) (SD rats [2]; postnatal day 24, n=15): no significant difference | number of vertical activity (rearing), EGF group vs cytochrome-C group (CON) (SD rats [2]; postnatal day 24, n=15): no significant difference | number of vertical activity (rearing), EGF group vs cytochrome-C group (SD rats [2]; postnatal day 52, n=10, counts within 10 minutes): significant difference was observed | sniffing behavior against the unfamiliar partner, EGF/VEH vs control rats (SD rats [3]; high light level, unfamiliar condition, p<0.01): reduced significantly | prepulse inhibition, EGF administrated group vs cytochrome-C administered group (SD rats [4]; postnatal day 30, prepulse intensities 80 db and 85 db): significant decrease | prepulse inhibition, EGF administrated group vs cytochrome-C administered group (SD rats [4]; postnatal day 33, prepulse intensities 80 db and 85 db): significant decrease | prepulse inhibition, EGF administrated group vs cytochrome-C administered group (SD rats [4]; postnatal day 37, prepulse intensities 75 db, 80 db and 85 db): significant decrease | prepulse inhibition and startle response in accordance to postnatal days, EGF group vs cytochrome-C control group (SD rats [4]; prepulse 75 db, postnatal days 21, 28, 30, 37, 46, 51, 60 and 90, n=10 per group (FIG. 2)): significant difference was recognized after postnatal day 28 | learning ability of the EGF-treated rats (SD rats [5]; adult phase (postnatal day 51-60)): appeared to be normal | ability to escape from the electric shock, EGF-treated group vs cytochrome-c control group (SD rats [5]; postnatal day 51-60, 10 trials/day, n=10 per group): no difference | latency of response, EGF-treated group vs control group (SD rats [5]; [6]): no difference | number of crossings between the two sides of the shuttle box, EGF-treated group vs control group (SD rats [5]; [6]): no difference

O=C(CCCN1CCC(O)(c2ccc(Cl)cc2)CC1)c1ccc(F)cc1 [haloperidol, 4-(4-[p-Chlorophenyl]-4-hydroxypiperidino)-4′-fluorobutyrophenone]
effect on vertical activity of the EGF rat groups (SD rats [2]; postnatal day 52): decreased significantly | effect on reduced sniffing behavior in the EGF administrated group (SD rats [3]): not effective | effect on prepulse inhibition in EGF administered rats (SD rats [4]; prepulse 75 db): such effect was not observed

CN1CCN(C2=Nc3cc(Cl)ccc3Nc3ccccc32)CC1 [clozapine, 8-Chloro-11-(4-methyl-1-piperazinyl)-5H-dibenzo[b,e][1,4]-diazepine]
effect on vertical activity of the EGF rat groups (SD rats [2]; postnatal day 52): decreased significantly | effect on reduced sniffing behavior in the EGF administrated group (SD rats [3]): recovered | prepulse inhibition of EGF administered group under clozapine (EGF CZP) vs cytochrome-C group (Cont CZP) (SD rats [4]; postnatal day 30, 9th day of clozapine treatment): significant abnormality in the prepulse inhibition remained | prepulse inhibition of EGF administered group under clozapine (EGF CZP) vs cytochrome-C group (Cont CZP) (SD rats [4]; postnatal day 33): significant difference in prepulse inhibition of the EGF administered group (EGF CZP) disappeared | prepulse inhibition of EGF administered group under clozapine (EGF CZP) vs cytochrome-C group (Cont CZP) (SD rats [4]; postnatal day 37): significant difference in prepulse inhibition of the EGF administered group (EGF CZP) disappeared | effect on prepulse inhibition in EGF administered rats (SD rats [4]; prepulse 75 db): significant improvement in prepulse inhibition

From patent US20030056232A1, “Animal showing schizophrenia-like abnormality in cognitive behaviors and method of constructing the same” (priority 2000, published 2003)
